Entries after “also recorded” stand apart in the source; their conditions may differ.
Assays:
[1] = system: mouse skinned myocardium; assay: Force-pCa relationship (Ca2+ sensitivity of force) in skinned myocardium; type: cell-based
Description: (§1) Skinned ventricular myocardium was prepared according to the protocol described by Chen et al. (2010). In brief, beating hearts were excised in vivo from anesthetized WT mice of either sex (˜6 months old) and dissected in Ca^2+-Ringer's solution containing 120 mM NaCl, 19 mM NaHCO3, 5 mM KCl, 1.2 mM Na2HPO4, 1.2 mM MgSO4, 1 mM CaCl2, and 10 mM glucose, pH 7.4 at 22° C., pre-equilibrated with 95% O2/5% CO2. Basal levels of RLC phosphorylation were reduced to uniformly low levels (i.e., <10%) as described previously (Olsson et al., 2004; Stelzer et al., 2006) by perfusing hemisected hearts with Ca^2+-Ringer's solution containing 30 mM 2,3-butanedione monoxime (BDM) for 30 minutes at 22° C. before rapid freezing in liquid nitrogen for storage prior to experimental measurements. The dephosphorylation of RLC provides an appropriate background for assessment of the effects of the peptide, since RLC phosphorylation increases force production in heart muscle and speeds contraction and RLC phosphorylation is nearly nil in heart failure.
On the day of an experiment, frozen ventricles were thawed and homogenized in ice-cold relaxing solution containing 100 mM KCl, 10 mM imidazole, 5 mM MgCl2, 2 mM EGTA, and 4 mMATP, pH 7.0 at 22° C. to yield multicellular preparations with dimensions of 600-900 μm×100-250 μm using a Polytron homogenizer. The cellular homogenates were then centrifuged and subsequently resuspended in ice-cold relaxing solution containing 250 μg/ml saponin and 1% Triton X-100 for 30 minutes at 4° C. […]
(§2) The force generating properties of murine or porcine skinned myocardium were measured as a function of free [Ca^2+] in activating solutions containing salts, a Ca^2+ buffer, and MgATP (Olsson et al., 2004). Free Ca^2+, expressed as −log [Ca^2+]free, was varied between sub-threshold (pCa 7.0) and saturating (pCa 4.5) levels with respect to force development. Measurements of isometric force as a function of pCa yielded force-pCa relationships, from which was determined the Ca^2+ sensitivity of force defined as the pCa at which force was half-maximal. […]

[2] = system: murine skinned myocardium; assay: Kinetics of force development (rate constant of force redevelopment, ktr); type: cell-based, mouse; details: 50 μM peptide, each pCa studied
Description: as §1, with “failure. […]” for “failure.”
The kinetics of force development were assessed as a function of pCa by measuring the rate of force redevelopment at each pCa following a rapid slackening and re-stretch of the muscle during steady Ca^2+ activation (Olsson et al., 2004; Stelzer et al., 2006). […]

[3] = system: porcine skinned myocardium; assay: Force-pCa relationship (Ca2+ sensitivity of force) in skinned myocardium; type: cell-based, pig
Description: Skinned myocardial preparations were attached between a force transducer (for measurements of force) and a displacement motor (to impose rapid changes in length for measurements of the kinetics of force development) while in relaxing solution (Olsson et al., 2004). The temperature was then adjusted to 22° C. for measurements of the contractile properties of myocardium in the presence and absence of peptide.
The force generating properties of murine or porcine skinned myocardium were measured as a function of free [Ca^2+] in activating solutions containing salts, a Ca^2+ buffer, and MgATP (Olsson et al., 2004). Free Ca^2+, expressed as −log [Ca^2+]free, was varied between sub-threshold (pCa 7.0) and saturating (pCa 4.5) levels with respect to force development. Measurements of isometric force as a function of pCa yielded force-pCa relationships, from which was determined the Ca^2+ sensitivity of force defined as the pCa at which force was half-maximal.
The force and kinetic data presented in the following section were obtained from each muscle preparation first during maximal activation at pCa 4.5, next during submaximal activation at a pCa>4.5, and once again during activation at pCa 4.5. The preparation was then bathed in relaxing solution containing peptide, after which the identical activation sequence was imposed. Finally, the peptide was washed out of the preparation by repeated washings in relaxing solution so that control measurements could again be done in the absence of peptide. This bracketing protocol ensured that the results in the presence of peptide were corrected for time-dependent rundown of the preparations during the experiment.
Measurements of Ca^2+ sensitivity of force were also performed using skinned myocardium from pig hearts, since these hearts are more similar to human hearts with respect to protein isoform expression than are mouse hearts. Specifically, the principal myosin isoform in porcine and human hearts is the much slower β-cardiac myosin, while the principal isoform in mouse hearts is the faster α-cardiac myosin. […] The slower β-cardiac isoform would be predicted to have a greater activating effect on the cardiac thin filament due to the longer residency time of the slower myosin on the thin filament.

[4] = system: mouse skinned myocardium; assay: Relative effects of peptides on force at submaximal pCa (scaled to force at pCa 4.5); type: cell-based; details: FIG. 7, mouse, 50 μM, intermediate pCa; untreated force ~35% of maximum
Description: as §1, with “The dephosphorylation of RLC provides an appropriate background for assessment of the effects of the peptide, since RLC phosphorylation increases force production in heart muscle and speeds contraction and RLC phosphorylation is nearly nil in heart failure.” left out
as §2

FSSLLKKRDAFRRDAKLE (SEQ ID NO:47) [302A, 18-mer from cMyBP-C region 293-310 with S→A substitutions at positions 302 and 307]
increase in Ca2+ sensitivity of force ([1]; mouse myocardium, 50 μM peptide, versus control): 0.15 pCa units
pCa50 following treatment with peptide ([1]; mouse myocardium, 50 μM peptide, control 5.70±0.02): 5.85±0.02
effect on force-pCa relationship ([1]; mouse skinned myocardium, peptide 50 μM): shift of the force-pCa relationship to lower Ca^2+ concentrations; also recorded: shifted to lower Ca^2+ concentrations
effect on rate constant of force development (ktr) [2]: accelerated the rate of force development at each pCa studied; also recorded: increased at each pCa studied
increase in Ca2+ sensitivity of force ([3]; porcine myocardium, 50 μM peptide, versus control): 0.32 pCa units
pCa50 following treatment with peptide ([3]; porcine myocardium, 50 μM peptide, control 5.60): 5.92
effect of washout of the peptide ([3]; porcine myocardium, after 50 μM peptide): reversed the effect
effects on force development, porcine versus murine ([3]; skinned myocardium, FIG. 3): significantly greater in porcine than in murine skinned myocardium
force at pCa 5.9 (scaled to force at pCa 4.5), fold of control [4]: ~2 × control

From patent US9051387B2, “Inhibition of MyBP-C binding to myosin as a treatment for heart failure” (Wisconsin Alumni Research Foundation, priority 2012, dated 2015)
